In general, IC50 refers to the concentration needed to halve the response being measured.

In one experiment the test system is flea allergic dogs. In words: Reducing Flea-associated Pruritus and Dermatitis Assay. The note with it: for pruritus as compared to placebo (seconds of pruritus per 4 hour recording): 10% level of significance. In kind it is in vivo. How it is done:
Twenty eight male and female dogs of mixed breeds ranging in weight from 5-35 kg and greater than one year of age were infested with approximately 100 unfed adult cat fleas (Ctenocephalides felis) 14 days prior to the start of dosing and reinfested with 30 fleas per dog every 4 days throughout the study. Seven days before dosing, twenty four dogs were randomized into three different treatment groups, placebo, 0.5 mg/kg or 0.25 mg/kg of the compound of Example 1b, based on visual analog scale (VAS) scores for skin lesions. Treatments were given orally twice a day for 28 days, and pruritic behavior as well as erythema and skin lesions were was assessed during the study. Pruritic behavior was recorded by placing dogs into pens with video recording capability, and recording their activity over 4 hours. Pruritic activity was quantitated by determining how many seconds the dogs spent scratching. Skin lesions were recorded by image capture of abdominal, inguinal region and the severity ranked according to a visual analog scale (VAS).
Video captured elapsed time of pruritic behavior was analyzed using a mixed linear model for repeated measures. The model included fixed effects of treatment and day of study and the interaction of treatment and day of study. Random effects included block, the interaction of block and treatment and error. Baseline data for pruritic behavior (day-1) were used as covariate in the analysis of pruritic behavior. Least squares means were used as estimates of treatment means. Standard errors of least squares means were estimated and 90% confidence intervals were constructed. Geometric means were computed from the least squares means for log-transformed data. A priori contrasts were used to assess treatment. Treatment differences were assessed at the 10% level of significance (P≦0.10).

Experiment [1] deals with T-cell proliferation in canine whole blood. Briefly: Canine in vitro T-cell Proliferation Assay. Format: cell-based. The note with it: Canis lupus familiaris, ConA + canine IL-2, tritiated thymidine. The procedure: Methods: Canine whole blood was collected in sodium heparin tubes from 29 beagle dogs and 23 mixed breed dogs. Whole blood (20 μL) was plated in 96-well plates (Costar 3598) with 180 μL of medium (RPMI 1640, Gibco #21870-076, with 1% heat inactivated fetal bovine serum, Gibco #10082-39, 292 μg/ml L-glutamine, Gibco #250030-081, 100 u/ml penicillin and 100 μg streptomycin per ml, Gibco #15140-122) containing vehicle control or test compound (0.001 to 10 μM), concanavalin A (ConA; 1 μg/ml, Sigma C5275), and canine interleukin-2 (IL-2; 50 ng/ml, R&D Systems 1815-CL/CF). Wells containing whole blood, medium with vehicle control and no ConA or IL-2 were used as background controls. Plates were incubated at 37° C. for 48 hours. Tritiated thymidine, 0.4 μCi/well (Perkin Elmer, Net027A-005MC), was added for 20 additional hours. Plates were frozen and then thawed, washed and filtered using a Brandel MLR-96 cell harvester and prewet filter mats (Wallac 1205-401, Perkin Elmer). Filters were dried at 60° C. for one hour (Precision 16EG convection oven) and placed into filter sample bags (Wallac 1205-411, Perkin Elmer) with 10 mL of scintillant (Wallac 1205-440, Perkin Elmer). Sealed filters were counted on a LKB Wallac 1205 Betaplate liquid scintillation counter. Data were collected via Gterm Betaplate program v1.1 (Wallac copyright 1989-1990) and transformed into percent inhibition, calculated using the following formula: […]

Consider `CNS(=O)(=O)C[C@H]1CC[C@H](N(C)c2ncnc3[nH]ccc23)CC1.O=C(O)/C=C\C(=O)O` [Example 1b, N-methyl-1-{trans-4-[methyl(7H-pyrrolo[2,3-d]pyrimidin-4-yl)amino]cyclohexyl}methanesulfonamide maleic acid salt], for which the “pruritus as compared to placebo (seconds of pruritus per 4 hour recording)” value is recorded as “Significant reductions” with flea allergic dogs (0.25 mg/kg orally twice a day, days 1, 4 and 12); “Significant reductions” with flea allergic dogs (0.5 mg/kg orally twice a day, days 1 and 20). In addition, the “Lesions and erythema (VAS)” value with flea allergic dogs (0.5 mg/kg orally twice a day for 28 days, flea allergic dogs) is reported as “significantly reduced”.
As for `CNS(=O)(=O)C[C@H]1CC[C@H](N(C)c2ncnc3[nH]ccc23)CC1` [Example 1a, N-methyl-1-{trans-4-[methyl(7H-pyrrolo[2,3-d]pyrimidin-4-yl)amino]cyclohexyl}methanesulfonamide], the IC50 worked out at 66.3 nM in experiment [1] (whole blood from beagles) and 138 nM in experiment [1] (whole blood from mixed breed dogs).
As to `CN(c1ncnc2[nH]ccc12)[C@H]1CC[C@H](CS(=O)(=O)NC2CCC2)CC1` [Example 2, N-cyclobutyl-1-{trans-4-[methyl(7H-pyrrolo[2,3-d]pyrimidin-4-yl)amino]cyclohexyl}methanesulfonamide], the IC50 in experiment [1] (whole blood from beagles) is 410 nM.

For the origin of these results see patent publication US9271981B2, “Pyrrolo[2,3-D]pyrimidine compounds” (Zoetis Services LLC, priority 2008, dated 2016).
